Experimental data: patent publication US20060241019A1, “Long lasting insulin derivatives and methods thereof” (priority 2003, published 2006)

Test system: Epididymal fat cells from Wistar rats
Test: Glucose uptake in epididymal fat cells
Assay type: cell-based
Conditions: D-[3-3H]Glucose incorporation, rat epididymal fat cells, 2 hour incubation
Method: In addition, glucose uptake in an other source of adipocytes was used to evaluate the in vitro activity. […] The tissue (0.03 g/ml) is degraded by collagenase in modified HEPES solution pH 7.4 at 37° C. Test compound and/or vehicle is incubated with 500 μl aliquots in modified HEPES buffer pH 7.4 and D-[3-3H]Glucose (2.5 μCi/ml) is then added for 2 hour incubation. Test compound-induced the increase of glucose incorporation by more than 50 percent or more (≧50%) relative to the control 2 nM insulin response, indicates possible insulin receptor agonist activity. […] Compounds are screened at 10, 1, 0.1, 0.01 and 0.001 μM.

## (Phe B1)-MPA-(AEES)2-Insulin [Example VI]
  EC50: 15.4 nM
